Target: 20S proteasome
Experiment: Tested in vitro for inhibition of chymotrypsin like activity of purified human 20S proteasome
Format: subcellular

| Structure (SMILES) | IC50 [nM] |
| --- | --- |
| COc1cc(CN[C@@H](C(=O)N[C@H](C(=O)NCc2ccc(OC)cc2O)C(C)C)[C@H](O)[C@H](Cc2ccccc2)NC(=O)[C@@H](NC(=O)OCc2ccccc2)C(C)(C)C)cc(OC)c1 | 190 |
| COc1ccc(CN[C@@H](C(=O)N[C@H](C(=O)NCc2ccc(OC)cc2O)C(C)C)[C@H](O)[C@H](Cc2ccccc2)NC(=O)[C@@H](NC(=O)Cc2cccc3ccccc23)C(C)(C)C)cc1 | 100 |
| COc1ccc(CNC(=O)[C@@H](NC(=O)[C@H](NCc2cc(OC)c(OC)c(OC)c2)[C@H](O)[C@H](Cc2ccccc2)NC(=O)[C@@H](NC(=O)Cc2cccc3ccccc23)C(C)(C)C)C(C)C)c(O)c1 | 7 |
| COc1ccc(CNC(=O)[C@@H](NC(=O)[C@H](NCc2cc(OC)c(OC)cc2OC)[C@H](O)[C@H](Cc2ccccc2)NC(=O)[C@@H](NC(=O)OCc2ccccc2)C(C)(C)C)C(C)C)c(O)c1 | 200 |
| COc1ccc(CNC(=O)[C@@H](NC(=O)[C@H](NCc2ccc(N(C)C)cc2)[C@H](O)[C@H](Cc2ccccc2)NC(=O)[C@@H](NC(=O)Cc2cccc3ccccc23)C(C)(C)C)C(C)C)c(O)c1 | 160 |
| COc1ccc(CNC(=O)[C@@H](NC(=O)[C@H](NCc2ccccc2)[C@H](O)[C@H](Cc2ccccc2)NC(=O)[C@@H](NC(=O)OCc2ccccc2)C(C)(C)C)C(C)C)c(O)c1 | > 20000 |
| COc1ccc(CNC(=O)[C@@H](NC(=O)[C@H](NCc2cc(OC)c(OC)c(OC)c2)[C@H](O)[C@H](Cc2ccccc2)NC(=O)[C@@H](NC(=O)OCc2ccccc2)C(C)(C)C)C(C)C)c(O)c1 | 50 |
| COc1ccc(CNC(=O)[C@@H](NC(=O)[C@H](NCc2ccc(OC)cc2OC)[C@H](O)[C@H](Cc2ccccc2)NC(=O)[C@@H](NC(=O)OCc2ccccc2)C(C)(C)C)C(C)C)c(O)c1 | 1600 |

Results, then the molecule that gave them:

| IC50 [nM] | Structure (SMILES) |
| --- | --- |
| 100 | COc1ccc(CNC(=O)[C@@H](NC(=O)[C@H](NCc2ccc(OC)c(OC)c2OC)[C@H](O)[C@H](Cc2ccccc2)NC(=O)[C@@H](NC(=O)OCc2ccccc2)C(C)(C)C)C(C)C)c(O)c1 |
| 1600 | COc1ccc(CNC(=O)[C@@H](NC(=O)[C@H](NCc2ccc(C(C)C)cc2)[C@H](O)[C@H](Cc2ccccc2)NC(=O)[C@@H](NC(=O)OCc2ccccc2)C(C)(C)C)C(C)C)c(O)c1 |
| 900 | COc1ccc(CN[C@@H](C(=O)N[C@H](C(=O)NCc2ccc(OC)cc2O)C(C)C)[C@H](O)[C@H](Cc2ccccc2)NC(=O)[C@@H](NC(=O)OCc2ccccc2)C(C)(C)C)cc1 |
| 18 | COc1ccc(CNC(=O)[C@@H](NC(=O)[C@H](NCc2ccc(OC)c(OC)c2OC)[C@H](O)[C@H](Cc2ccccc2)NC(=O)[C@@H](NC(=O)Cc2cccc3ccccc23)C(C)(C)C)C(C)C)c(O)c1 |
| > 20000 | COc1ccc(CNC(=O)[C@@H](NC(=O)[C@H](NCc2ccccc2OC)[C@H](O)[C@H](Cc2ccccc2)NC(=O)[C@@H](NC(=O)OCc2ccccc2)C(C)(C)C)C(C)C)c(O)c1 |
| > 20000 | COc1ccc(CNC(=O)[C@@H](NC(=O)[C@H](NCc2ccc(-c3ccccc3)cc2)[C@H](O)[C@H](Cc2ccccc2)NC(=O)[C@@H](NC(=O)OCc2ccccc2)C(C)(C)C)C(C)C)c(O)c1 |
| 150 | COc1ccc(CNC(=O)[C@@H](NC(=O)[C@H](NCc2ccc(OC)c(OC)c2)[C@H](O)[C@H](Cc2ccccc2)NC(=O)[C@@H](NC(=O)OCc2ccccc2)C(C)(C)C)C(C)C)c(O)c1 |
| 600 | COc1ccc(CNC(=O)[C@@H](NC(=O)[C@H](NCc2ccc(N(C)C)cc2)[C@H](O)[C@H](Cc2ccccc2)NC(=O)[C@@H](NC(=O)OCc2ccccc2)C(C)(C)C)C(C)C)c(O)c1 |
| 1500 | COc1cccc(CN[C@@H](C(=O)N[C@H](C(=O)NCc2ccc(OC)cc2O)C(C)C)[C@H](O)[C@H](Cc2ccccc2)NC(=O)[C@@H](NC(=O)OCc2ccccc2)C(C)(C)C)c1 |
| > 20000 | COc1ccc(CNC(=O)[C@@H](NC(=O)[C@H](NCc2ccc(Oc3ccccc3)cc2)[C@H](O)[C@H](Cc2ccccc2)NC(=O)[C@@H](NC(=O)OCc2ccccc2)C(C)(C)C)C(C)C)c(O)c1 |
| 29 | COc1ccc(CNC(=O)[C@@H](NC(=O)[C@H](NCc2cc(OC)c(OC)cc2OC)[C@H](O)[C@H](Cc2ccccc2)NC(=O)[C@@H](NC(=O)Cc2cccc3ccccc23)C(C)(C)C)C(C)C)c(O)c1 |

Reference: ChEMBL document CHEMBL1136019, “Structure-based optimisation of 2-aminobenzylstatine derivatives: potent and selective inhibitors of the chymotrypsin-like activity of the human 20S proteasome” (Bioorg Med Chem Lett, 2002)
